Data on two molecules can be found in patent US5132320A, “Squalene synthetase inhibitors” (Merck & Co., Inc., priority 1990, dated 1992).

The target of test [1] is T1, Squalene Synthetase (Rattus norvegicus, UniProt Q02769).
T1 construct: from tissue; host or cells: liver microsomes of male Charles River CD rats fed 0.1% lovastatin for 4 days
T1 sequence (Q02769 1-416): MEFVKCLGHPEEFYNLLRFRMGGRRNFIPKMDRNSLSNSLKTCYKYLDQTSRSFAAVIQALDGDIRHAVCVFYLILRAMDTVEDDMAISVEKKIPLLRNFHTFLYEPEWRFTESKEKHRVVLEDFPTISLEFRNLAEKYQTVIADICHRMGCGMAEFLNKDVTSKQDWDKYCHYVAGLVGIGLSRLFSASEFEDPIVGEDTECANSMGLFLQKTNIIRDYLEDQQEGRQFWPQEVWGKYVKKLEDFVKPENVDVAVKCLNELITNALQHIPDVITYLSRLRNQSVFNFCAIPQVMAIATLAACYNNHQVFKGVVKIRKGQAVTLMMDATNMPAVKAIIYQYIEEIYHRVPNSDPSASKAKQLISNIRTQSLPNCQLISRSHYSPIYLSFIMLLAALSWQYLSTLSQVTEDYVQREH
Nature of the test: squalene synthetase assay (rat liver microsomes, [4-14C]farnesyl-pyrophosphate). The class given is biochemical. As to conditions: 30° C., 20 minutes, pH 7.5. The method, then: The intrinsic squalene synthetase inhibitory activity of representative compounds of this invention was measured by the standard in vitro protocol described below:
PREPARATION OF MICROSOMES
Male, Charles River CD rats (120 to 150 g) were fed a diet containing 0.1% lovastatin for 4 days. The livers from these rats were homogenized in 5 volumes (ml/g) of ice cold 50 mM HEPES (4-(2-hydroxyethyl)-1-piperazine-ethanesulfonic acid), 5 mM EDTA (ethylenediaminetetraacetic acid) pH 7.5 with a Potter-Elvehjem type tissue grinder. The homogenate was centrifuged twice at 20,000×g for 15 minutes at 4° C., discarding the pellet each time. The supernatant was then centrifuged at 100,000×g for 1 hour at 4° C. The resulting microsomal pellet was resuspended in a volume of the above homogenizing buffer equal to one-fifth the volume of the original homogenate. This microsomal preparation has a protein concentration of about 7 mg/ml. The microsomal suspensions were stored in aliquots at -70° C. Squalene synthetase activity in these aliquots is stable for at least several months.
Partial Purification of Prenyl Transferase
Prenyl transferase was purified to use in the enzymatic synthesis of radiolabelled farnesyl pyrophosphate. […]
Background: Microsomes from liver hold many membrane-bound enzymes, among them those of drug oxidation.

The test system of test [2] is Fus. oxysporum MF4014. Nature of the test: antifungal microtiter dilution assay, filamentous fungi (MIC). The class given is cell-based. As to conditions: Fusarium oxysporum, 42 hours, 28° C., read-out: Minimum Inhibitory Concentration. The protocol: The compounds are particularly active towards filamentous fungi and yeasts including Candida albicans and Crypt. neoformans. The sensitivity of filamentous fungi and yeast was determined using inhibitor dilution assays in microtiter format. The compounds were dissolved in DMSO at 2 mg/ml and serially diluted in 0.1M phosphate buffer, pH 7.0 in the microtiter dish from 100 to 0.006 μg/ml. A standardized spore suspension for testing the filamentous fungi was prepared by inoculating Antibiotic Medium #3 containing 1.5% agar with spores such that 1.5×10^3 colony forming units were added per well. The microtiter wells were filled with 50 μl of buffer containing compound and 50 μl of inoculated medium. The sensitivity of yeasts was determined by inoculating yeast nitrogen base containing 1% dextrose (YNB/G) with aliquots of an overnight yeast culture grown in Yeast Morphology (YM) media at 35° C. and diluting in YNB/G to yield a final concentration of 1.5-7.5×10^3 colony forming units/well. One hundred fifty μl of inoculated media was added per well. To test the sensitivity of yeast, compound was solubilized in 10 percent aqueous DMSO at 2.56 mg/ml. The compound was diluted serially in YNB/G from 128 to 0.06 μg/ml. The wells were filled with 150 μl of drug containing media. […]

A word on the IC50: it is the concentration at which inhibition is half-maximal. High values mean weaker potency, low ones greater potency. As to `CC=CCCCCC=CCCCCC(=O)OC1C(O)C2(CCC(C)C(O)C(C)CC=Cc3ccccc3)OC(C(=O)O)C(O)(C(=O)O)C1(C(=O)O)O2` (stereo not drawn) [Compound A], the IC50 in test [1] amounted to 5 nM. Moreover, in test [2], the MIC was above 100 µg/mL.

As for `CC=CCCCCC=CCCCCC(=O)OC1C(O)C2(CCC(C)C(O)C(C)CC=Cc3ccccc3)OC(C(=O)OC)C(O)(C(=O)OC)C1(C(=O)OC)O2` (stereo not drawn) [Compound B], in test [1], the 50% inhibitory concentration (IC50) came to 5000 nM.
